Results taken from ChEMBL document CHEMBL5335826, “Biochemical and Structural Studies of the Carminomycin 4-O-Methyltransferase DnrK” (J Nat Prod, 2024).

Key:
PC-3 = assay: Cytotoxicity against human PC-3 cells assessed as reduction in cell viability incubated for 72 hrs by alamar blue assay; type: functional, cell-based; conditions: PC-3, 72 h
A549 = assay: Cytotoxicity against human A549 cells assessed as reduction in cell viability incubated for 72 hrs by alamar blue assay; type: functional, cell-based; conditions: A549, 72 h

Row | Compound | IC50 (PC-3) | IC50 (A549)
1 | CO[C@H]1[C@H](O[C@@H]2c3c(cc4c(c3O)C(=O)c3c(O)cccc3C4=O)C(=O)[C@@](C)(O)[C@H]2OC)O[C@@H](C)[C@H](O)[C@H]1O [ARANCIAMYCIN] | 1100 nM | 2700 nM
2 | CC(=O)[C@]1(O)Cc2c(O)c3c(c(O)c2[C@@H](O[C@H]2C[C@H](N)[C@H](O)[C@H](C)O2)C1)C(=O)c1c(O)cccc1C3=O [CARUBICIN] | 35 nM | 13.1 nM
3 | COc1cc(O)c2c(c1)C(=O)c1cc3c(c(O)c1C2=O)[C@@H](O[C@@H]1O[C@@H](C)[C@H](OC)[C@@H](O)[C@H]1OC)[C@H](OC)[C@](C)(O)C3=O | 3100 nM | 2800 nM
4 | COc1cccc2c1C(=O)c1c(O)c3c(c(O)c1C2=O)C[C@@](O)(C(C)=O)C[C@@H]3O[C@H]1C[C@H](N)[C@H](O)[C@H](C)O1 [DAUNORUBICIN] | 170 nM | 199 nM
5 | COc1cccc2c1C(=O)c1c(cc3c(c1O)[C@@H](O[C@@H]1O[C@@H](C)[C@H](O)[C@@H](O)[C@H]1OC)[C@H](OC)[C@](C)(O)C3=O)C2=O | 4300 nM | 13800 nM
